Source: patent publication US8911952B2, “Method for integrin ligand discovery” (STC. UNM, priority 2010, dated 2014)
Where a name gives a salt, the structure may show the parent alone. Marks after values point to notes of the source that are not given here.

Legend:
[1] = tested on: hematopoietic stem and progenitor cells (HSPCs); experiment: Mobilization of hematopoietic stem and progenitor cells into the peripheral blood; details: mouse; for CFU/ml in peripheral Blood / WBC count/ml × 10^6: intraperitoneal, one hour prior to blood collection, thioridazine hydrochloride 1.25 mg/kg, AMD3100 5 mg/kg, Mean ± S.E.
VLA-4 [2] = molecular target: T1, VLA-4 (Homo sapiens, UniProt P05556+P13612); experiment: HUTS-21 antibody binding (ligand induced epitope exposure) on U937 cells; format: cell-based; set-up: host or cells: U937 (human histiocytic lymphoma); in part of the real-time experiments U937 stably transfected with a non-desensitizing FPR mutant, where VLA-4 itself is endogenous
Description: U937 cells were suspended in the HEPES buffer (see above) 1×10^6 cells/ml, 100 μl aliquots (10^5 cells) were incubated with different concentrations of unlabeled compounds for 10 min. Next, 20 μl of PE-labeled HUTS-21 antibodies was added and cells were incubated for additional […] at room temperature. Next, cells were washed with 1 ml of HEPES buffer, resuspended in 300-500 μl of buffer and analyzed by flow cytometry (FL2 channel, BD FACScan). The data were plotted as mean channel fluorescence vs. the concentration of the compound. The data were fitted to a sigmoidal dose-response equation. To determine the level of nonspecific binding, cells were stained in parallel with the isotype control antibodies.

LFA-1 = molecular target: T2, LFA-1 (Homo sapiens, UniProt P05107+P20701); experiment: Binding of MEM-148 mAbs to U937 cells (epitope exposure); format: cell-based
T2 construct: host or cells: U937 (human histiocytic lymphoma)
From the text: In order to confirm that similar results can be obtained with other integrins we have constructed a 3D model of αLβ2-integrin (LFA-1, CD11a/CD18). Amino acid residue critical for the binding of MEM-148 mAb to β2-integrin subunit (Pro 374) was highlighted as green space fill (1). This model was compared to the model of β1-integrin subunit, where critical residues (Ser370, Glu371, and Lys417) were highlighted in a similar way (2) (FIG. 8). It is worth noting that critical residues for both mAbs are positioned in a similar way on the inner side of the hybrid domain. Since the outward movement of the hybrid domain, induced by a ligand binding (at least for β1-integrin (2)), can be used to report occupancy of the ligand binding pocket (3), we decided to use MEM-148 mAbs to probe LFA-1 integrin conformation upon ligand binding.
To test this possibility, two αLβ2-integrin ligands were synthesized as described previously. Compound 3 (Genentech) and XVA143 (Roche) are shown to be LFA-1 specific antagonists (4) FIG. 9.

VLA-4 [3] = molecular target: T1, VLA-4; experiment: Detection of VLA-4 allosteric antagonists: HUTS-21 binding inhibition screen of the Prestwick Chemical Library
Description: 5 μl RPMI was added to columns 2-24. Column 1 was left empty for flow cytometry data binning purposes. Test compounds in DMSO (Prestwick Chemical Library, PCL) were added and mixed (0.1 μl of 1 mM stock solution). […] Compounds were added to 320 wells (columns 3-22). […] Columns 23, 24 were used for the positive control (no test compounds added). Next, 5 μl aliquots of U937 cells were suspended in RPMI 1640 at 3×10^6 cells/ml, loaded in 384 well plates, and mixed (1×10^6 cells/ml final). Cells were incubated for 10 min at RT. This time is sufficient for the binding of a small molecule (˜1 kD) at 10 μM at RT. […] Plates were incubated for 1 hour at 37° C. According to the real-time kinetic studies this time was sufficient to reach equilibrium. Next, wells were sampled using the high throughput flow cytometry platform (HyperCyt) at UNMCMD.
After data acquisition by the flow cytometer (CyAn™ ADP), proprietary software was used to analyze the data files (IDLQuery, at UNMCMD, developed by Bruce Edwards). The data were exported into a Microsoft Excel spreadsheet template, and the value for antibody binding inhibition (%) was calculated for each well as follows: % Inhibition=100(1−((MCFtest−MCFneg.control)/MCFpos.control−MCFneg.control))), where, MCF is mean channel fluorescence of cells with test compounds, and positive or negative control wells.

VLA-4 [4] = molecular target: T1, VLA-4; experiment: Real-time binding of HUTS-21 antibodies to U937 cells; format: cell-based; set-up: host or cells: U937 (human histiocytic lymphoma); in part of the real-time experiments U937 stably transfected with a non-desensitizing FPR mutant, where VLA-4 itself is endogenous; details: 1 nM LDV in the absence of the compound
Description: the Ability of a Flow Cytometer to Discriminate between free and bound fluorescent ligand in a homogeneous assay was used to determine the binding kinetics of mAbs in real-time (15; 26). Cells (10^6 cells/ml) were removed from ice and warmed in HEPES buffer containing 0.1% HSA for 10 min at 37° C. […] Screening hits at saturating concentration (10-30 μM final) or DMSO (vehicle) were added at point 0.

[5] = molecular target: VLA-4 (very late antigen 4, CD49d/CD29, alpha4beta1 integrin) (human) (UniProt P13612); experiment: flow cytometry on U937 cells, PE-HUTS-21 with rising LDV
Sequence of VLA-4 (very late antigen 4, CD49d/CD29, alpha4beta1 integrin) (human) (P13612 34-1032, chain 1 of 2): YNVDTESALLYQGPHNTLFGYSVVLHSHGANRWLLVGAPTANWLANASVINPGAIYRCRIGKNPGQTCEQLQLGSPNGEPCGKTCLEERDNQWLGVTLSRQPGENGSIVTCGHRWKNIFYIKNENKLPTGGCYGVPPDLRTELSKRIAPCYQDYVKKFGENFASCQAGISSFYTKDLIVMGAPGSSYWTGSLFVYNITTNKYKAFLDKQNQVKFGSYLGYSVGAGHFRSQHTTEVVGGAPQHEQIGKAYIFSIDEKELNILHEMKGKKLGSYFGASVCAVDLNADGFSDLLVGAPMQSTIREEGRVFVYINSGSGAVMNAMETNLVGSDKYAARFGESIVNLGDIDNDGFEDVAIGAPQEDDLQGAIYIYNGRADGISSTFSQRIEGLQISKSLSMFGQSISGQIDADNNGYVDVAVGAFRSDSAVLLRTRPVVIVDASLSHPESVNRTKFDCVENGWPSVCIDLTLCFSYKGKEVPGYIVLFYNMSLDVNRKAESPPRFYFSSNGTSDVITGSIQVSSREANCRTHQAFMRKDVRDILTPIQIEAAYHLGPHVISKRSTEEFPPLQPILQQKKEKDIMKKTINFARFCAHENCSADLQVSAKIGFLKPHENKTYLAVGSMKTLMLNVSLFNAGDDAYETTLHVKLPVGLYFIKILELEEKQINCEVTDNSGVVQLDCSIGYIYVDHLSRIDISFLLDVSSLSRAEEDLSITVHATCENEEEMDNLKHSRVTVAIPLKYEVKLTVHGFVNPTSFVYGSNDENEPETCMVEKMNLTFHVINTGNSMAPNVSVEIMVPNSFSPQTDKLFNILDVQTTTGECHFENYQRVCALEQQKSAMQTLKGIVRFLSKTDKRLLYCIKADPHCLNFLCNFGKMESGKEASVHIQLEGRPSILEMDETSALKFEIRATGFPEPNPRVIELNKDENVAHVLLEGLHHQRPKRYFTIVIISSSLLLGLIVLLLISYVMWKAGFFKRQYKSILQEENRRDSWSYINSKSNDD
Sequence of VLA-4 (very late antigen 4, CD49d/CD29, alpha4beta1 integrin) (human) (P05556 21-798, chain 2 of 2, further chain): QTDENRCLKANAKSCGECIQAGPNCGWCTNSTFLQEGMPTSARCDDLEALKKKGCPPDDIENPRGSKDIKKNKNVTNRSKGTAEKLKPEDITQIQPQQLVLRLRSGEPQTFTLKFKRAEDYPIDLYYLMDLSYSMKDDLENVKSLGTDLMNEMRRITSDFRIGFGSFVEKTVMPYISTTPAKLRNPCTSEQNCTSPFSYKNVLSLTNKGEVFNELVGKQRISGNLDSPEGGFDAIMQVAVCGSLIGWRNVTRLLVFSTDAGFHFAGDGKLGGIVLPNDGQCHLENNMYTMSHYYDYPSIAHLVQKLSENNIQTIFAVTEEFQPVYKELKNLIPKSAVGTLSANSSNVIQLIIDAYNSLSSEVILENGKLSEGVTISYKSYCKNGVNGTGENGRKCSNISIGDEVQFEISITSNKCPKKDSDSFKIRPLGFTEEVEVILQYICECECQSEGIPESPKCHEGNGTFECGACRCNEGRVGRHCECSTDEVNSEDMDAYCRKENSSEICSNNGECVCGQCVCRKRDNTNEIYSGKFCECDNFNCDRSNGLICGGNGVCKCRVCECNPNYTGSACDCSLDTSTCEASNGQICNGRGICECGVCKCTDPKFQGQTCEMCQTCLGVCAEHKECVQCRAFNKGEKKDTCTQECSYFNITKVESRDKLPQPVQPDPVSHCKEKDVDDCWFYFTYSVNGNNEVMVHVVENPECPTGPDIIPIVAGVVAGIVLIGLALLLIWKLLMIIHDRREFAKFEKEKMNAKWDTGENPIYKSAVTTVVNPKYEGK

T1 sequence (P13612 34-1032): as the sequence (P13612 34-1032, chain 1 of 2) above
T1 sequence (P05556 21-798): as the sequence (P05556 21-798, chain 2 of 2, further chain) above
T2 sequence (P20701 26-1170): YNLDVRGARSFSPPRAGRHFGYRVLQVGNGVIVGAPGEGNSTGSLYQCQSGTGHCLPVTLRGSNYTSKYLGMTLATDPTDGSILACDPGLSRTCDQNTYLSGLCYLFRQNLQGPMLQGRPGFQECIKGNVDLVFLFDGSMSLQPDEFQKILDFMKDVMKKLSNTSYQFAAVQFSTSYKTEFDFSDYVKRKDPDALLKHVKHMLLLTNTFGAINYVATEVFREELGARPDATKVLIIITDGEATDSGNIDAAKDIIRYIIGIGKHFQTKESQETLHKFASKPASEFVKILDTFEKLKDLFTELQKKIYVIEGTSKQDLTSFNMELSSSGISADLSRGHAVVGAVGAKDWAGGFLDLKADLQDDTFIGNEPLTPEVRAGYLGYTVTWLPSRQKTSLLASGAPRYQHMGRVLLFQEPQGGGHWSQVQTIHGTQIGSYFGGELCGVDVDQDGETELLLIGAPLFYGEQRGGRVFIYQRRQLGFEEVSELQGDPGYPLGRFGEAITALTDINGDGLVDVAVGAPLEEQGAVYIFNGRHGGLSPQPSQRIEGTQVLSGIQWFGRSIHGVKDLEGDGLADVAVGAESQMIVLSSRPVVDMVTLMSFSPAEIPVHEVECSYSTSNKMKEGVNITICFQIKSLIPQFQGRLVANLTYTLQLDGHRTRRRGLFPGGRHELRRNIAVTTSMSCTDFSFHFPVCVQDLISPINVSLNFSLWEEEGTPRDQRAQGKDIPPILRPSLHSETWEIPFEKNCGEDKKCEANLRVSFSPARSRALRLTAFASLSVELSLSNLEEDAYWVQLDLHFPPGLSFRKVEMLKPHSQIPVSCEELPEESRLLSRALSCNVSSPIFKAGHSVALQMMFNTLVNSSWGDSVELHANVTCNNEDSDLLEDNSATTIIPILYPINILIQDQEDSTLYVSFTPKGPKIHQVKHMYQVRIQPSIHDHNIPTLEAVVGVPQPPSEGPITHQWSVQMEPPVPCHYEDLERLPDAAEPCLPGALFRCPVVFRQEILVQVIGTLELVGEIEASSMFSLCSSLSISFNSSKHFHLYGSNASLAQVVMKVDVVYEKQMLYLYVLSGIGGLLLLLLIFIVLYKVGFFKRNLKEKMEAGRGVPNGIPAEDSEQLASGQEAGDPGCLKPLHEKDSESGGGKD
T2 sequence (P05107 23-769): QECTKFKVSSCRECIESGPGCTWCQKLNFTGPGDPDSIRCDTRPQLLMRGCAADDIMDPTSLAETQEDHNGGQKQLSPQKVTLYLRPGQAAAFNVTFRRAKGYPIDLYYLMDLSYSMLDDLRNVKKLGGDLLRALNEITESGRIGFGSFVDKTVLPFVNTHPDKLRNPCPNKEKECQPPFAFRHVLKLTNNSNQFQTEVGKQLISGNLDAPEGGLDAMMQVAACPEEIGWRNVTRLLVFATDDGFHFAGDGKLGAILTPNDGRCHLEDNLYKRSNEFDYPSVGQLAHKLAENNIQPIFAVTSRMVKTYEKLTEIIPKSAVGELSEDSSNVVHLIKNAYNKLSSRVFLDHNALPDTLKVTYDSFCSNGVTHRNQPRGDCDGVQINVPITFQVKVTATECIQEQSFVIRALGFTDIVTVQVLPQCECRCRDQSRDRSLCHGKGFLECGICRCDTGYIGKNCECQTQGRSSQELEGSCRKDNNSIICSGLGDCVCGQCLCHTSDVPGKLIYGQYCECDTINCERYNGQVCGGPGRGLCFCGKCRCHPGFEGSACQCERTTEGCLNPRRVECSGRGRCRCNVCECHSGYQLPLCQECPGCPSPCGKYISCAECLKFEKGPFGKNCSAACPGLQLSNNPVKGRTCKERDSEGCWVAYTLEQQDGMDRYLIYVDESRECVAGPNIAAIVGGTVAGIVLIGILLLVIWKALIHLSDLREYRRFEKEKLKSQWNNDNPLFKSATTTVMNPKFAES

c1cc(CN2CCCNCCNCCCNCC2)ccc1CN1CCCNCCNCCCNCC1 [AMD3100, AMD3100 octahydrochloride]
WBC count increase ([1]; AMD3100 5 mg/kg intraperitoneal, versus vehicle): ~2.1 fold | CFU/ml in peripheral Blood [1]: 511.8 ± 78.8^a CFU/ml | WBC count/ml × 10^6 [1]: 7.8 ± 0.7^b count/ml × 10^6

COc1cccc(OC)c1-c1ccc(C[C@H](NC(=O)c2c(Cl)cccc2Cl)C(=O)O)cc1 [TR14035, N-(2,6-dichlorobenzoyl)-(L)-4-(2′,6′-bis-methoxyphenyl)phenylalanine]
LIBS (HUTS-21 epitope) exposure (VLA-4 [2]): resulted in the LIBS exposure

CSc1ccc2c(c1)N(CCC1CCCCN1C)c1ccccc1S2 (stereo not drawn) [Thioridazine, Thioridazine hydrochloride]
CFU/ml in peripheral Blood [1]: 216.8 ± 42.1 CFU/ml | WBC count/ml × 10^6 [1]: 3.0 ± 0.3 count/ml × 10^6

O=C(NCc1cccc(O)c1)c1cc(Cl)c(C(=O)N[C@@H](CNC(=O)c2cc(O)cc(O)c2)C(=O)O)c(Cl)c1 [XVA143]
exposure of MEM-148 epitope (LFA-1): induced exposure of MEM-148 epitope

O=C(CCCN1CCC(O)(c2ccc(Cl)cc2)CC1)c1ccc(F)cc1 [haloperidol]
antagonistic activity in the HUTS-21 based screen (VLA-4 [3]): did not show any antagonistic activity

CCN(CC)CCNC(=O)c1cc(Cl)c(N)cc1OC [metoclopramide]
antagonistic activity in the HUTS-21 based screen (VLA-4 [3]): did not show any antagonistic activity

OCCN1CCN(CCCN2c3ccccc3Sc3ccc(Cl)cc32)CC1 [perphenazine]
LDV concentration required to induce HUTS-21 binding in the presence of the compound (VLA-4 [4]): 0.1 µM

CCN1CCCC1CNC(=O)c1cc(S(N)(=O)=O)ccc1OC (stereo not drawn) [sulpiride]
antagonistic activity in the HUTS-21 based screen (VLA-4 [3]): did not show any antagonistic activity

Mouse anti-human CD29, HUTS-21 (PE) (antibody)
signal to background ratio [5]: 10
